Results reported in publication PMC6770006, “Novel Heat Shock Protein 90 Inhibitors Suppress P-Glycoprotein Activity and Overcome Multidrug Resistance in Cancer Cells” (International Journal of Molecular Sciences, 2019).
Entries after “also recorded” stand apart in the source; their conditions may differ.

Legend:
MRC-5 cells = test: MTT assay, normal embryonic lung fibroblasts MRC-5; format: cell-based, human; settings: for IC50: Homo sapiens, MRC5, MTT, 72 h, normal fibroblasts, read-out: Cell growth inhibition IC50, MRC-5; for Relative Selectivity: IC50 in MRC-5 cells / average IC50 of four cancer cell lines
Description: (§1) A series of 3-aryl-naphtho[2,3-d]isoxazole-4,9-diones were synthesized (Scheme 1, Figure 1) and their growth inhibition activity was tested in vitro on human non-small cell lung carcinoma NCI-H460, colorectal carcinoma DLD1 and their corresponding MDR cells (NCI-H460/R and DLD1-TxR, respectively), as well as normal embryonic lung fibroblasts MRC-5. The differences in cell growth inhibition between cancer and normal cells obtained by the MTT assay after 72 h treatment are presented in Table 1. The effect of compounds is presented as IC50 values that correspond to the 50% of cell growth inhibition.
(§2) Cell viability was assessed by the MTT assay (AppliChem GmbH, Darmstadt, Germany). Cells grown in 25 cm^2 tissue flasks were trypsinized and 1000 cells/well were seeded into flat-bottomed 96-well tissue culture plates and incubated overnight. Subsequently, the cells were treated with increasing concentrations of Hsp90 inhibitors for 72 h: compound 3 (0.1–2.5 µM), compound 4 (0.25–5 µM), compound 5 (0.5–25 µM), compound 6 (50–1000 nM), compound 7 (10–250 nM), compound 8 (0.25–5 µM), compound 9 (10–250 nM), compound 10 (0.5–25 µM), compound 13 (0.5–10 µM), compound 14 (1–25 µM), and compound 15 (10–250 nM). […] After treatment, MTT was added to each well in a final concentration of 0.2 mg/mL for 4 h. Formazan product was dissolved in 200 µl of DMSO, and the absorbance was measured at 540 nm using an automatic LKB 5060-006 Micro Plate Reader (Vienna, Austria). IC50 value was defined as a concentration of the drug that inhibited cell growth by 50% and was calculated by nonlinear regression analysis using GraphPad Prism 6.0 for Windows (La Jolla, CA, USA). Relative selectivity towards cancer cells was calculated as a relation between IC50 value obtained in MRC-5 cells and an average IC50 value from four tested cancer cell lines.

DLD1-TxR cells = test: MTT assay, cell growth inhibition, DLD1-TxR (MDR); format: cell-based, human; settings: 72 h; for IC50: Homo sapiens, MDR cells
Description: as §1
(§3) Human colorectal carcinoma (DLD1), non-small cell lung carcinoma (NCI-H460), and normal embryonic lung fibroblast (MRC-5) cell lines were purchased from the American Type Culture Collection, Rockville, MD. P-gp overexpressing multidrug resistant DLD1-TxR cells were selected by continuous exposure to stepwise increasing concentrations of paclitaxel from DLD1 cells, while NCI-H460/R cells were selected from NCI-H460 cells after DOX selective pressure. MDR cancer cell lines, DLD1-TxR and NCI-H460/R, and their sensitive counterparts were maintained in RPMI 1640 medium supplemented with 10% FBS, 2 mM L-glutamine, and 10,000 U/mL penicillin, 10 mg/mL streptomycin, 25 mg/mL amphotericin B solutions. MRC-5 cells were cultured in DMEM supplemented with 10% FBS, 4 g/L glucose, 2 mM L-glutamine and 5000 U/mL penicillin, 5 mg/mL streptomycin solution. All cell lines were sub-cultured at 72 h intervals using 0.25% trypsin/EDTA and seeded into a fresh medium at 8000 cells/cm^2. All cell lines were maintained at 37 °C in a humidified 5% CO2 atmosphere.
as §2

P-gp = P-gp (Homo sapiens, UniProt P08183); test: Rhodamine 123 accumulation assay (P-gp activity, flow cytometry); format: cell-based; set-up: P-gp overexpressing multidrug resistant DLD1-TxR cells were selected by continuous exposure to stepwise increasing concentrations of paclitaxel from DLD1 cells; endogenous in cells; host or cells: NCI-H460/R and DLD1-TxR (drug-selected MDR human cancer cells); settings: 30 min, Figure 3a; for P-gp activity / Rho 123 accumulation: MDR NCI-H460/R and DLD1-TxR cells, one concentration per compound (100 nM-10 µM)
Description: To study the effect of Hsp90 inhibitors on P-gp activity in MDR cancer cells, intracellular accumulation of the P-gp substrate rhodamine 123 (Rho 123) was analyzed by flow cytometry after 30 min treatment (Figure 3a). A well-known inhibitor of P-gp activity, tariquidar (TQ), was included as a positive control.
The accumulation of Rho 123, a fluorescent P-gp substrate, was measured by flow cytometry. The intensity of the fluorescence is proportional to Rho 123 accumulation in the cell. All cell lines were seeded in adherent 6-well plates and grown overnight. DLD1-TxR and NCI-H460/R cells were treated for 30 min with the following concentrations of Hsp90 inhibitors: 500 nM compound 3, 1 µM compound 4, 10 µM compound 5, 500 nM compound 6, 500 nM compound 7, 1 µM compound 8, 500 nM compound 9, 1 µM compound 10, 1 µM compound 13, 10 µM compound 14, 100 nM compound 15. TQ (10 nM) was used as a positive control for Rho 123 accumulation. Rho 123 (5 μM) was simultaneously added with the investigated compounds and the cells were incubated at 37 °C in 5% CO2 for 30 min. The cells were then trypsinized, pelleted by centrifugation, washed with PBS and placed in ice-cold PBS. The samples were kept on ice in the dark until the analysis on CyFlow Space Partec flow cytometer (Sysmex Partec GmbH, Görlitz, Germany). The fluorescence of Rho 123 was detected on fluorescence channel 1 (FL1-H) at 530 nm. A minimum of 10,000 events were collected for each sample and the obtained results were analyzed using Summit software.

NCI-H460 cells = test: MTT assay, cell growth inhibition, NCI-H460; format: cell-based; settings: Homo sapiens, 72 h, three independent experiments
Description: as §1, §2

Hsp90 = tested on: Hsp90; set-up: method as in PMID 22538015; settings: read-out: Hsp90 Affinity binding; cited from earlier work
NCI-H460/R cells = test: MTT assay, cell growth inhibition, NCI-H460/R (MDR); format: cell-based, human; settings: for Efficacy in MDR NCI-H460/R cells compared with sensitive NCI-H460: 72 h; for IC50: Homo sapiens, NCI-H460, 72 h, MDR cells
Description: as §1, §3, §2

[1] = tested on: NCI-H460, NCI-H460/R, DLD1, DLD1-TxR cells; test: MTT assay, grouping of inhibitors by IC50 over the cancer cell lines; format: cell-based; settings: Homo sapiens, Figure 2b, read-out: IC50 values (grouping for Pearson correlation)
Description: When the IC50 values obtained by the MTT assay were compared to Hsp90 affinity binding IC50 values (Table 1), a positive Pearson correlation (r > 0.5) was found for all cancer cell lines (Figure 2b).
as §2

DLD1 cells = test: MTT assay, cell growth inhibition, DLD1; format: cell-based; settings: Homo sapiens, DLD-1, 72 h
Description: as §1, §2

P-gp, sequence (P08183 whole entry): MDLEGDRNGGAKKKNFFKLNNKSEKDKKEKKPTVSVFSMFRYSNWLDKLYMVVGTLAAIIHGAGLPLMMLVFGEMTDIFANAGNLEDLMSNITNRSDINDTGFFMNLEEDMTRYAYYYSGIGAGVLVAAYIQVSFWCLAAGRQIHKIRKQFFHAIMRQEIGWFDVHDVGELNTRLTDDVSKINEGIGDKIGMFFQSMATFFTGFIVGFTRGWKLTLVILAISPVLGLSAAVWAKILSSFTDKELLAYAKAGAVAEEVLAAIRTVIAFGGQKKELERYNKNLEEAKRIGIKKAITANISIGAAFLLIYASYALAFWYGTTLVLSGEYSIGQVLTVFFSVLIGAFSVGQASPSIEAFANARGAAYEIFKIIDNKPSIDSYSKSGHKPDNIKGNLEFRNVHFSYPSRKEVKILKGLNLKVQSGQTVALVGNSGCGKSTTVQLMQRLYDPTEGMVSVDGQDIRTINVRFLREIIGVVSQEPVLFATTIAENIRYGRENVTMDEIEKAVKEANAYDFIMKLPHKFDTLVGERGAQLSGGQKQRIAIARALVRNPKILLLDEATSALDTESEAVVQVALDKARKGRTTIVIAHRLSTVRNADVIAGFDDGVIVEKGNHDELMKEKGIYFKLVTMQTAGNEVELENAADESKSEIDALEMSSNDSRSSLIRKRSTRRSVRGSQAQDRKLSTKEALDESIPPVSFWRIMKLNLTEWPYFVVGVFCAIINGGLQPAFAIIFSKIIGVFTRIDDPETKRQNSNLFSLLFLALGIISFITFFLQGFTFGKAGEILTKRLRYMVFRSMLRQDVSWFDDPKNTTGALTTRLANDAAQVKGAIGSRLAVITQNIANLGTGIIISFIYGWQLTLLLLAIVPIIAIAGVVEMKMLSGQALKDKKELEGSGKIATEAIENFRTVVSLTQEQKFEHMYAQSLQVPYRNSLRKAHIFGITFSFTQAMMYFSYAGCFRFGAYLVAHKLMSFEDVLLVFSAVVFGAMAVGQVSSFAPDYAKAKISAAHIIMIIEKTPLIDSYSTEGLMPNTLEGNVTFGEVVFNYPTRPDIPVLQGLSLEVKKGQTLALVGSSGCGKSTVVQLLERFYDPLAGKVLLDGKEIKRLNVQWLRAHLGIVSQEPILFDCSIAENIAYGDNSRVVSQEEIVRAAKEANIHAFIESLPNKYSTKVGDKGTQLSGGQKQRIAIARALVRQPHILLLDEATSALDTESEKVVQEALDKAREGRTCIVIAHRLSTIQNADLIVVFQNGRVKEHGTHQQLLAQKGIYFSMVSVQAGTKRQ

| Structure (SMILES) | IC50 (DLD1-TxR cells) [nM] | P-gp activity / Rho 123 accumulation (P-gp) | IC50 (NCI-H460 cells) [nM] | IC50 (NCI-H460/R cells) [nM] | IC50 [1] [nM] | IC50 (DLD1 cells) [nM] | P-gp activity / Rho 123 accumulation in DLD1-TxR (P-gp; DLD1-TxR cells) | IC50 (MRC-5 cells) [nM] | Efficacy in MDR DLD1-TxR cells compared with sensitive DLD1 (DLD1-TxR cells) | IC50 (Hsp90) [nM] | Efficacy in MDR NCI-H460/R cells compared with sensitive NCI-H460 (NCI-H460/R cells) | Relative Selectivity (MRC-5 cells) |
| --- | --- | --- | --- | --- | --- | --- | --- | --- | --- | --- | --- | --- |
| COc1cccc2c1C(=O)c1c(-c3ccncc3)noc1C2=O [Compound 13] | 1000 ± 16 | decreased | 1250 ± 28 | 1060 ± 12 | ≥ 1000 | 1900 ± 36 |  | 174 ± 4 | collateral sensitivity | 1900 | evaded resistance mechanisms |  |
| O=C1c2ccccc2C(=O)c2c(-c3ccccn3)noc21 [Compound 10] | 1790 ± 36 | reduction in activity | 1270 ± 14 | 1375 ± 12 | ≥ 1000 | 2640 ± 35 |  | 257 ± 4 | collateral sensitivity | 1060 | overcame resistance |  |
| COc1ccc(-c2noc3c2C(=O)c2ccccc2C3=O)cc1 [Compound 4] | 1060 ± 25 | did not have any positive effects | 935 ± 48 | 579 ± 18 |  | 1520 ± 54 |  | 1750 ± 83 | remained higher than in the corresponding sensitive cells | 5840 | remained higher than in the corresponding sensitive cells | 1.71 |
| O=C1c2ccccc2C(=O)c2c(-c3cc[n+](Cc4ccccc4)cc3)noc21 [Compound 8] | 3360 ± 49 | detrimental; also recorded: modest activity | 159 ± 3 | 351 ± 5 | ≥ 1000 | 251 ± 3 |  | 11000 ± 366 | compromised in the presence of the MDR phenotype | 34 | compromised in the presence of the MDR phenotype | 10.69 |
| CC(=O)Oc1cccc2c1C(=O)c1c(-c3ccncc3)noc1C2=O [Compound 15] | 193 ± 7 |  | 52 ± 2 | 39 ± 1 | < 1000 | 44 ± 1 | maintained a certain activity | 250 ± 14 | lower | 84 | maintained | 3.05 |
